US6747061B2, “N-substituted dithiocarbamates for the treatment of biological disorders” (AtheroGenics, Inc., priority 2000, dated 2004)
Like-named read-outs stand apart in the source and are kept apart here.

Key:
[1] = test system: DLD-1 colorectal carcinoma cells; experiment: Anti-proliferative effect on DLD-1 cells (CellTiter96); type: cell-based; details: Homo sapiens, read-out: proliferation, percent of control; for activity at 1 µM: NDE 1 μM; for activity at 10 µM: NDE 10 μM; for activity at 100 µM: NDE 100 μM
Method: All primary cells and cell lines were commercially available. The transformed cell lines were grown in Dulbecco's Modified Eagle Media supplemented with 2 mM L-glutamine, 50 I.U. penicillin, 50 μg/ml streptomycin, nonessential amino acids and 10% heat-inactivated fetal bovine serum. HASM, HAEC and NHBE cells were cultured exactly as described by the commercial provider (Clonetics, San Diego, Calif.). All cell lines were grown at 37° C. in 5% CO2, with the media being changed every 48 hours.
For the experimental assays, cells were plated in 96-well plates and grown until ˜35% confluency was achieved. For the transformed cell lines, cells were plated at low density and grown for 72 hours prior to being stimulated, whereas the non-transformed cells were plated at a higher density and grown for 24 hours prior to being stimulated.
Cells were treated with dithiocarbamate (0.1-100 μM)±5FU (0.01-10 μM) and retreated after 48 hours when media was changed. Cell growth was assessed using the CellTiter96® assay system from Promega (Madison, Wis.). Each experimental condition was performed in triplicate or quadruplicate, with the number of experiments for each cell line being three.
Statistical significance was assessed using an ANOVA with the appropriate post-hoc analysis as well as Students t-tests. *=p<0.05 when compared to control-treated (DMSO) cells. #=p<0.05 when compared to 5FU-treated cells.

[2] = test system: 15-LOX-2; experiment: 15-Lipoxygenase Form-2 assay: immunoblot of TNF-α and IL-4 co-induced 15-LOX-2 expression in NHBE cells; type: cell-based; details: Homo sapiens, TNF-α 10 ng/ml + IL-4 20 ng/ml, 16-20 hours
Method: The 15-Lipoxygenase Form-2 (15-LOX-2) Assay is an immunoblot assay to measure tumor necrosis factor alpha (TNF-α) and interleukin-4 (IL-4) co-induced expression of 15-LOX-2 in Normal Human Epithelial Cells.
Normal human bronchial epithelial cells (NHBE) were purchased from Clonetics. They were cultured in BEGM (Clonetics) media without retinoic acid. In a typical experiment, the cells were seeded in 24-well plates. Media was changed to BEGM without retinoic acid (RA) and hydrocortisone (HC) 24 hour before dosing. Cells were then exposed to TNF-α (10 ng/ml) and IL-4 (20 ng/ml) purchased from Boehringer Mannheim in the absence or presence of compounds in fresh BEGM without RA and HC for 16-20 hours at 37° C. To establish a dose curve for each compound, three concentrations in 2 fold increments were used. All compounds were dissolved in DMSO and the final concentration of DMSO was 0.2%.
Cells were washed with cold 1×PBS three times and then lysed by 100 μl of Tris-Glycine SDS sample buffer (NOVEX). Lysates were fractionated by 4-20% gradient SDS-PAGE (NOVEX), transferred onto nitrocellulose filters (MSI) and incubated with the filters in blocking buffer (5% Blotto in 1×Tris buffered saline (TBS)+0.05% Tween 20) for 1 hour with gentle shaking. […]

Which activity at 1 µM ([1]; 24 HOURS) does the source give for COC(=O)CCCSC(=S)NCC1CCCO1 (stereo not shown) [NDE, 4-(tetrahydrofuran-2-ylmethylthiocarbamoylsulfanyl)-butyric acid methyl ester] here?
Its activity at 1 µM is 116 ± 3.72%.

And the activity at 1 µM ([1]; 48 HOURS)?
The activity at 1 µM was 107 ± 7.55%.

And the activity at 1 µM ([1]; 72 HOURS)?
The activity at 1 µM was 133 ± 10.3%.

And the activity at 10 µM ([1]; 24 HOURS)?
The activity at 10 µM was 97.1 ± 1.79%.

What about the activity at 10 µM ([1]; 48 HOURS) of the same compound?
Its activity at 10 µM is 104 ± 13.3%.

What about the activity at 10 µM ([1]; 72 HOURS) of the same compound?
The activity at 10 µM was 142 ± 14.9%.

What about the activity at 100 µM ([1]; 24 HOURS) of the same compound?
The activity at 100 µM was 53.8 ± 5.28%.

And the activity at 100 µM ([1]; 48 HOURS)?
The activity at 100 µM was 39.8 ± 6.27%.

And the activity at 100 µM ([1]; 72 HOURS)?
Its activity at 100 µM is 0.27 ± 0.27%.

And the IC50 [2]?
The IC50 was 4.5 µM.
